Patent US12653815B2, “Luminally-acting N-(piperidin-4-yl)benzamide derivatives” (Takeda Pharmaceutical Company Limited, priority 2020, dated 2026)

Molecular target: T1, human 5-HT4(b) receptor (Homo sapiens, UniProt Q13639)
T1 construct: overexpressing the full-length human 5-HT4(b) receptor with an N-terminal FLAG tag; FLAG (N); host or cells: CHO-K1
Assay: 5-HT4(b) agonist assay (cAMP accumulation)
Type: cell-based
Conditions: CHO-K1 cells overexpressing full-length human 5-HT4(b) receptor; cAMP accumulation after 30 minutes at room temperature; 1 μM 5-HT as 100% activity
Protocol: One may determine the activity of the compounds of Formula 1 using a variety of methods, including in vitro and in vivo methods. The ability of the example compounds to activate the 5-HT4(b) receptor may be determined using the following assay.
Chinese hamster ovary (CHO-K1) cells overexpressing the full-length human 5-HT4(b) receptor with an N-terminal FLAG tag (Multispan Inc, Hayward, CA) are cultured per the manufacturer's protocol in 1:1 DMEM/F12 (Thermo Fisher, Waltham, MA) with 10% fetal bovine serum (GE Healthcare, Pittsburgh, PA) and 10 μg/mL puromycin (Thermo Fisher, Waltham, MA), and stored in frozen aliquots to be used as assay ready cells. On the day of the assay, cells are removed from frozen storage, washed two times in 1× Kreb's Ringer Buffer (Zenbio, Research Triangle Park, NC), and re-suspended to a concentration of 4×10^6 cells/mL in 1× Kreb's Ringer Buffer. Test compound (50 nL) in 100% DMSO is acoustically dispensed in low volume, white, 384-well polypropylene plates (Corning, Tewksbury, MA), followed by the addition of 4×10^4 cells per well in a total volume of 10 μL. Cells are incubated with test compound for 30 minutes at room temperature in the dark, and cAMP accumulation is measured using the Cisbio HiRange cAMP assay kit (Bedford, MA) per the manufacturer's protocol. Anti-cAMP antibody and d2-cAMP tracer reagents diluted in lysis/detection buffer are incubated in the dark for 1 hour, and results are measured on a Pherastar plate reader (BMG Labtech, Ortenberg, Germany). Data are normalized using 1 μM 5-HT (Sigma Aldrich, St. Louis, MO) as 100% activity, and DMSO alone as 0% activity.
The ability of the example compounds to activate the 5-HT4(b) receptor was evaluated using the assay described in the Biological Activity section. Table 1, below, lists EC50 from the 5-HT4(b) agonist assay for each of the example compounds, where smaller EC50 values represent higher potency.

T1 sequence (Q13639 whole entry): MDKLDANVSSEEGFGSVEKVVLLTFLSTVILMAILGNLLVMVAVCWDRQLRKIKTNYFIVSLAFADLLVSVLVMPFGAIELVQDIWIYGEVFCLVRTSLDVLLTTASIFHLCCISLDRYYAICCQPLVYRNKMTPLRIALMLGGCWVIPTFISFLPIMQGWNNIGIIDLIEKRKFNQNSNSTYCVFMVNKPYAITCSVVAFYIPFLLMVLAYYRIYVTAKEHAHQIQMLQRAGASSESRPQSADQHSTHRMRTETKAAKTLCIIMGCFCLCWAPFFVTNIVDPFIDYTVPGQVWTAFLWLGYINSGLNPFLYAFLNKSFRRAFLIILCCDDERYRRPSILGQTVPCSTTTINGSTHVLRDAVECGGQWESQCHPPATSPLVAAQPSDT

| EC50 | SMILES |
| --- | --- |
| 150 nM | COc1cc(N)c(Cl)cc1C(=O)N[C@@H]1CCN(C(C)CCCCC(=O)NCCCCCCCC(=O)NC[C@H](O)[C@@H](O)[C@H](O)[C@H](O)CO)C[C@@H]1OC (stereo partly drawn) [Example 18, 4-amino-5-chloro-2-methoxy-N-((3S,4R)-3-methoxy-1-(7-oxo-7-((8-oxo-8-(((2S,3R,4R,5R)-2,3,4,5,6-pentahydroxyhexyl)amino)octyl)amino)heptan-2-yl)piperidin-4-yl)benzamide] |
| 8.1 nM | COc1cc(N)c(Cl)cc1C(=O)N[C@@H]1CCN(CCCCCC(=O)NC2CCN(CCCCCC(=O)NC[C@H](O)[C@@H](O)[C@H](O)[C@H](O)CO)CC2)C[C@@H]1OC [Example 9, 4-amino-5-chloro-2-methoxy-N-((3S,4R)-3-methoxy-1-(6-oxo-6-((1-(6-oxo-6-(((2S,3R,4R,5R)-2,3,4,5,6-pentahydroxyhexyl)amino)hexyl)piperidinyl)amino)hexyl)piperidin-4-yl)benzamide] |
| 1.2 nM | CO[C@H]1CN(CC2CCN(C(=O)CCCCCCCC(=O)NC[C@H](O)[C@@H](O)[C@H](O)[C@H](O)CO)CC2)CC[C@H]1NC(=O)c1cc(Cl)c(N)c2c1OCC2 [Example 41, 4-amino-5-chloro-N-((3S,4R)-3-methoxy-1-((1-(9-oxo-9-(((2S,3R,4R,5R)-2,3,4,5,6-pentahydroxyhexyl)amino)nonanoyl)piperidin-4-yl)methyl)piperidin-4-yl)-2,3-dihydrobenzofuran-7-carboxamide] |
| 6.1 nM | Nc1c(Cl)cc(C(=O)NC2CCN(CCCCCC(=O)NC3CCN(CCCCCC(=O)NC[C@H](O)[C@@H](O)[C@H](O)[C@H](O)CO)CC3)CC2)c2c1CCO2 [Example 31, 4-amino-5-chloro-N-(1-(6-oxo-6-((1-(6-oxo-6-(((2S,3R,4R,5R)-2,3,4,5,6-pentahydroxyhexyl)amino)hexyl)piperidin-4-yl)amino)hexyl)piperidin-4-yl)-2,3-dihydrobenzofuran-7-carboxamide] |
| 43.3 nM | COc1cc(N)c(Cl)cc1C(=O)N[C@@H]1CCN(CCCCCC(=O)N(C)CCCCCCCC(=O)NC[C@H](O)[C@@H](O)[C@H](O)[C@H](O)CO)C[C@@H]1OC [Example 16, 4-amino-5-chloro-2-methoxy-N-((3S,4R)-3-methoxy-1-(6-(methyl(8-oxo-8-(((2S,3R,4R,5R)-2,3,4,5,6-pentahydroxyhexyl)amino)octyl)amino)-6-oxohexyl)piperidin-4-yl)benzamide] |
| 2.5 nM | Nc1c(Cl)cc(C(=O)NCC2CCN(CC3CCN(CCCCCCCCCCC(=O)NC[C@H](O)[C@@H](O)[C@H](O)[C@H](O)CO)CC3)CC2)c2c1CCO2 [Example 36, 4-amino-5-chloro-N-((1-((1-(11-oxo-11-(((2S,3R,4R,5R)-2,3,4,5,6-pentahydroxyhexyl)amino)undecyl)piperidin-4-yl)methyl)piperidin-4-yl)methyl)-2,3-dihydrobenzofuran-7-carboxamide] |
| 22.2 nM | COc1cc(N)c(Cl)cc1C(=O)N[C@@H]1CCN(CCCCCC(=O)NCCOCCOCCOCCC(=O)NC[C@H](O)[C@@H](O)[C@H](O)[C@H](O)CO)C[C@@H]1OC [Example 6, 4-amino-5-chloro-2-methoxy-N-((3S,4R)-3-methoxy-1-((22S,23R,24R,25R)-22,23,24,25,26-pentahydroxy-6,19-dioxo-10,13,16-trioxa-7,20-diazahexacosyl)piperidin-4-yl)benzamide] |
| 19.8 nM | COc1cc(N)c(Cl)cc1C(=O)N[C@@H]1CCN(CCCCCC(=O)NC[C@H](O)[C@@H](O)[C@H](O)[C@H](O)CO)C[C@@H]1OC [Example 1, 4-amino-5-chloro-2-methoxy-N-((3S,4R)-3-methoxy-1-(6-oxo-6-(((2S,3R,4R,5R)-2,3,4,5,6-pentahydroxyhexyl)amino)hexyl)piperidin-4-yl)benzamide] |
| 27.6 nM | COc1cc(N)c(Cl)cc1C(=O)N[C@@H]1CCN(CCCC(C)CC(=O)NCCCCCCCC(=O)NC[C@H](O)[C@@H](O)[C@H](O)[C@H](O)CO)C[C@@H]1OC (stereo partly drawn) [Example 21, 4-amino-5-chloro-2-methoxy-N-((3S,4R)-3-methoxy-1-(4-methyl-6-oxo-6-((8-oxo-8-(((2S,3R,4R,5R)-2,3,4,5,6-pentahydroxyhexyl)amino)octyl)amino)hexyl)piperidin-4-yl)benzamide] |
| 77 nM | COc1cc(N)c(Cl)cc1C(=O)N[C@@H]1CCN(CC(C)CCCC(=O)NCCCCCCCC(=O)NC[C@H](O)[C@@H](O)[C@H](O)[C@H](O)CO)C[C@@H]1OC (stereo partly drawn) [Example 19, 4-amino-5-chloro-2-methoxy-N-((3S,4R)-3-methoxy-1-(2-methyloxo-6-((8-oxo-8-(((2S,3R,4R,5R)-2,3,4,5,6-pentahydroxyhexyl)amino)octyl)amino)hexyl)piperidin-4-yl)benzamide] |
| 9.6 nM | COc1cc(N)c(Cl)cc1C(=O)N[C@@H]1CCN(CCCCCC(=O)NC2CCN(CCCCCCCC(=O)NC[C@H](O)[C@@H](O)[C@H](O)[C@H](O)CO)CC2)C[C@@H]1OC [Example 8, 4-amino-5-chloro-2-methoxy-N-((3S,4R)-3-methoxy-1-(6-oxo-6-((1-(8-oxo-8-(((2S,3R,4R,5R)-2,3,4,5,6-pentahydroxyhexyl)amino)octyl)piperidin-4-yl)amino)hexyl)piperidin-4-yl)benzamide] |

Second part, the compound before the results:

| SMILES | EC50 |
| --- | --- |
| CO[C@H]1CN(CC2CCN(C(=O)CCCCCC(=O)NC[C@H](O)[C@@H](O)[C@H](O)[C@H](O)CO)CC2)CC[C@H]1NC(=O)c1cc(Cl)c(N)c2c1OCC2 [Example 42, 4-amino-5-chloro-N-((3S,4R)-3-methoxy-1-((1-(7-oxo-7-(((2S,3R,4R,5R)-2,3,4,5,6-pentahydroxyhexyl)amino)heptanoyl)piperidin-4-yl)methyl)piperidin-4-yl)-2,3-dihydrobenzofuran-7-carboxamide] | 1.4 nM |
| Nc1c(Cl)cc(C(=O)NCC2CCN(CC3CCN(C(=O)CCCCCCCCC(=O)NC[C@H](O)[C@@H](O)[C@H](O)[C@H](O)CO)CC3)CC2)c2c1CCO2 [Example 39, 4-amino-5-chloro-N-((1-((1-(10-oxo-10-(((2S,3R,4R,5R)-2,3,4,5,6-pentahydroxyhexyl)amino)decanoyl)piperidin-4-yl)methyl)piperidin-4-yl)methyl)-2,3-dihydrobenzofuran-7-carboxamide] | 1.2 nM |
| COc1cc(N)c(Cl)cc1C(=O)N[C@@H]1CCN(CCCCCC(=O)NCCCCCCCC(=O)NCCP(=O)(O)O)C[C@@H]1OC [Example 25, (2-(8-(6-((3S,4R)-4-(4-amino-5-chloro-2-methoxybenzamido)-3-methoxypiperidin-1-yl)hexanamido)octanamido)ethyl)phosphonic acid] | 115 nM |
| COc1cc(N)c(Cl)cc1C(=O)N[C@@H]1CCN(CCCCCC(=O)NCCOCCOCCC(=O)NC[C@H](O)[C@@H](O)[C@H](O)[C@H](O)CO)C[C@@H]1OC [Example 7, 4-amino-5-chloro-2-methoxy-N-((3S,4R)-3-methoxy-1-((19S,20R,21R,22R)-19,20,21,22,23-pentahydroxy-6,16-dioxo-10,13-dioxa-7,17-diazatricosyl)piperidin-4-yl)benzamide] | 23.4 nM |
| Nc1c(Cl)cc(C(=O)NC2CCN(CCCCCC(=O)N[C@@H]3CCCN(CCCCCC(=O)NC[C@H](O)[C@@H](O)[C@H](O)[C@H](O)CO)C3)CC2)c2c1CCO2 [Example 29, 4-amino-5-chloro-N-(1-(6-oxo-6-(((R)-1-(6-oxo-6-(((2S,3R,4R,5R)-2,3,4,5,6-pentahydroxyhexyl)amino)hexyl)piperidin-3-yl)amino)hexyl)piperidin-4-yl)-2,3-dihydrobenzofuran-7-carboxamide] | 4.4 nM |
| COc1cc(N)c(Cl)cc1C(=O)N[C@@H]1CCN(CCCCCC(=O)NCCCCCCCC(=O)N(CCCN(C)C)CCS(=O)(=O)O)C[C@@H]1OC [Example 27, 2-(8-(6-((3S,4R)-4-(4-amino-5-chloro-2-methoxybenzamido)methoxypiperidin-1-yl)hexanamido)-N-(3-(dimethylamino)propyl)octanamido)ethane-1-sulfonic acid] | 30.3 nM |
| COc1cc(N)c(Cl)cc1C(=O)N[C@@H]1CCN(CCOCCC(=O)NCCCCCCCC(=O)NC[C@H](O)[C@@H](O)[C@H](O)[C@H](O)CO)C[C@@H]1OC [Example 17, 4-amino-5-chloro-2-methoxy-N-((3S,4R)-3-methoxy-1-(2-(3-oxo ((8-oxo-8-(((2S,3R,4R,5R)-2,3,4,5,6-pentahydroxyhexyl)amino)octyl)amino)propoxy)ethyl)piperidin-4-yl)benzamide] | 202 nM |
| CO[C@H]1CN(CC2CCN(C(=O)CCCC(=O)NC[C@H](O)[C@@H](O)[C@H](O)[C@H](O)CO)CC2)CC[C@H]1NC(=O)c1cc(Cl)c(N)c2c1OCC2 [Example 43, 4-amino-5-chloro-N-((3S,4R)-3-methoxy-1-((1-(5-oxo-5-(((2S,3R,4R,5R)-2,3,4,5,6-pentahydroxyhexyl)amino)pentanoyl)piperidin-4-yl)methyl)piperidin-4-yl)-2,3-dihydrobenzofuran-7-carboxamide] | 1.7 nM |
